The source of these data is patent US20220089593A1, “PDE9 INHIBITOR AND USE THEREOF” (TRANSTHERA SCIENCES (NANJING), INC., priority 2019, published 2022).

For the first series, the target named is T1, PDE9A2 enzyme (Homo sapiens, UniProt O76083).
T1 construct: purchased BPS 60090
T1 sequence (O76083 1-533 isoform O76083-2): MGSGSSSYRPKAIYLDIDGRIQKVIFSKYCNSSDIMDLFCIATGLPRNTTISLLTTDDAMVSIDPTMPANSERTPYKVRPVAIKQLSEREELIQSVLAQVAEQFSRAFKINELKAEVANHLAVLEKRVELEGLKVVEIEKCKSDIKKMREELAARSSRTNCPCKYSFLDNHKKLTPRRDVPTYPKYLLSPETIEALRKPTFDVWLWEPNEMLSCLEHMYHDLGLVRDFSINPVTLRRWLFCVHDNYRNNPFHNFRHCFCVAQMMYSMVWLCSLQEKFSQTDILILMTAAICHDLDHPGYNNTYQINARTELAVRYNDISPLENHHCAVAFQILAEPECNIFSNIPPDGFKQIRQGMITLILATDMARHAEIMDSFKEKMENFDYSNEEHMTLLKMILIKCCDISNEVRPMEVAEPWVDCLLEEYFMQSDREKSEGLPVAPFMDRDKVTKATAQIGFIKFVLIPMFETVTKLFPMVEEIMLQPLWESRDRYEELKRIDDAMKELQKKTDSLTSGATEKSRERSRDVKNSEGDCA
Kind of series: PDE9 enzymatic evaluation. The format is biochemical. The settings on record: PDE9A2 enzyme (BPS), fluorescence reading 480 nm/535 nm, room temperature.
Procedure: Preparation of the compounds: Compounds were formulated into 10 mM compound stock solution in DMSO for long term storage.
Subsequently, 10 μL of the substrate mixture was added, and after centrifugation at 1000 rpm for 1 min, the resulting mixture was incubated at room temperature with oscillating for 30 min. Finally, stop solution was added to end the reaction, and the resulting reaction system was incubated at room temperature with oscillating for 60 min. In the maximum reading well (Max), the compound was replaced by solvent; in the minimum reading well (Min), the compound and the enzyme solution were replaced by solvent.
Detection: the fluorescence readings (F) at 480 nm/535 nm were detected using a microplate reader.
Calculation: The inhibition rate was calculated according to the following formula and IC50 was fitted using GraphPad Prism 5.0:
Turning to `COC1(C)CCN(c2c(C#N)c(=O)[nH]c3cnc(C(C)C)cc23)CC1` [Compound 163, 6-isopropyl-4-(4-methoxy-4-methylpiperidin-1-yl)-2-oxo-1,2-dihydro-1,7-naphthyridine-3-carbonitrile], half-maximal inhibition (IC50) required 50 nM.

The molecule `COC1(C)CCN(c2c(C#N)c(=O)[nH]c3cccnc23)CC1` [Compound 165, 4-(4-methoxy-4-methylpiperidin-1-yl)-2-oxo-1,2-dihydro-1,5-naphthyridine-3-carbonitrile] returned a half-maximal inhibitory concentration (IC50) of 24 nM.

`COC1(C)CCN(c2c(C#N)c(=O)[nH]c3ccc(C)nc23)CC1` [Compound 166, 4-(4-methoxy-4-methylpiperidin-1-yl)-6-methyl-2-oxo-1,2-dihydro-1,5-naphthyridine-3-carbonitrile] came in with a half-maximal inhibitory concentration (IC50) of 19 nM.

Take `CCc1ccc2[nH]c(=O)c(C#N)c(N3CCC(C)(OC)CC3)c2n1` [Compound 167, 6-ethyl-4-(4-methoxy-4-methylpiperidin-1-yl)-2-oxo-1,2-dihydro-1,5-naphthyridine-3-carbonitrile]: the half-inhibitory concentration (IC50) came to 11 nM.

With `COC1(C)CCN(c2c(C#N)c(=O)[nH]c3cnc(CO)cc23)CC1` [Compound 177, 6-(hydroxymethyl)-4-(4-methoxy-4-methylpiperidin-1-yl)-2-oxo-1,2-dihydro-1,7-naphthyridine-3-carbonitrile], the IC50 turned out to be 15 nM.

In turn, `CC(O)c1cc2c(N3CCC(C)(O)CC3)c(C#N)c(=O)[nH]c2cn1` (stereo not shown) [Compound 194, 4-(4-hydroxy-4-methylpiperidin-1-yl)-6-(1-hydroxyethyl)-2-oxo-1,2-dihydro-1,7-naphthyridine-3-carbonitrile] displayed a concentration for half-maximal inhibition (IC50) of 37 nM.

In turn, `CC1(C)CCN(c2c(C#N)c(=O)[nH]c3ccccc23)CC1` [Compound I-11, reference compound] showed an IC50 of 70 nM.

The target in the next series is human PDE9 (Homo sapiens, UniProt O76083).
Sequence of human PDE9 (O76083 whole entry): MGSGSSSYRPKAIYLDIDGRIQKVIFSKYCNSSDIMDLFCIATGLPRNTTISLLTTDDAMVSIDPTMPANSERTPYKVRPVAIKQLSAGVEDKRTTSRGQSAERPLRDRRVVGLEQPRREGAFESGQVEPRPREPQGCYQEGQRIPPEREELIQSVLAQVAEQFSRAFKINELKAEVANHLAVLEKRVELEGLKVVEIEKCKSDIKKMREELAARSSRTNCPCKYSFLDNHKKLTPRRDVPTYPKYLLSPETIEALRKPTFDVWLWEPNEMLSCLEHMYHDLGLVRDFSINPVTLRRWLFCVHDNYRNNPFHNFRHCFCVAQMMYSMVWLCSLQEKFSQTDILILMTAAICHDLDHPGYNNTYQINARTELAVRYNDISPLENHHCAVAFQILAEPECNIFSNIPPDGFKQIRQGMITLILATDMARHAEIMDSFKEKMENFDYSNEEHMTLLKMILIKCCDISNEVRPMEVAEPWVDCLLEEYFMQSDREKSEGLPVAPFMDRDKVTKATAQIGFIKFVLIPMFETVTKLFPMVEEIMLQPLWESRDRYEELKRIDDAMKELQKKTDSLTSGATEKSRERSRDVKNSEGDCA
Test: not given
As to conditions: background statement; cited from earlier work.
On to `CC(C)Cn1c(=O)n(C)c(=O)c2[nH]cnc21` [IBMX], for which the “inhibitory activity against PDE9” value is recorded as “no inhibitory activity or low inhibitory activity”.

Consider `CC(=O)Nc1ccc(-c2c[nH]c(=O)cn2)cc1` [SKF94120], for which the “inhibitory activity against PDE9” value is on record as “no inhibitory activity or low inhibitory activity”.

For the molecule `OCCN(CCO)c1nc(N2CCCCC2)c2nc(N(CCO)CCO)nc(N3CCCCC3)c2n1` [dipyridamole], the “inhibitory activity against PDE9” value is listed as “no inhibitory activity or low inhibitory activity”.

Regarding `COc1ccc(C2CNC(=O)C2)cc1OC1CCCC1` (stereo not shown) [rolipram], the “inhibitory activity against PDE9” value is listed as “no inhibitory activity or low inhibitory activity”.

Consider `CCOC(=O)C1=C[C@]2(CC)CCCN3CCc4c(n1c1ccccc41)[C@@H]32` [vinpocetine], for which the “inhibitory activity against PDE9” value is reported as “no inhibitory activity or low inhibitory activity”.

Tested on in a further series: not listed separately
The experiment in a line: Dog liver microsomal stability. In kind it is in vitro ADME. The settings on record: dog liver microsomes 0.5 mg protein/mL, compound 1 μM, β-NADPH 1 mM, 37° C. On the procedure:
Test samples: the compounds disclosed herein and the compound 1-8 of patent WO2017019723A1 (prepared by referring to the examples for synthesis in WO2017019723A1) having the following structural formula: […]
An appropriate amount of the compound was precisely weighed out and dissolved in DMSO to prepare a 5.0 mM stock solution. The 5.0 mM stock solution was diluted to 1.0 mM with DMSO, and then diluted with water to 10 μM compound working solution for later use (DMSO content in the reaction system: 0.1% v/v).
Vd=1/protein content in liver microsomes
For the molecule `COC1(C)CCN(c2c(C#N)c(=O)[nH]c3cnc([C@H](C)O)cc23)CC1` (single isomer, unassigned) [Compound B, 6-(1-hydroxyethyl)-4-(4-methoxy-4-methylpiperidin-1-yl)-2-oxo-1,2-dihydro-1,7-naphthyridine-3-carbonitrile], the half-life at 1 μM worked out at 866 min and the microsomal CLint at 1 μM turned out to be 1.6 µL/min/mg.

As to `COC1(C)CCN(c2c(C#N)c(=O)[nH]c3ccc(C)nc23)CC1` [Compound 166, 4-(4-methoxy-4-methylpiperidin-1-yl)-6-methyl-2-oxo-1,2-dihydro-1,5-naphthyridine-3-carbonitrile], the half-life at 1 μM came to 408 min and the microsomal CLint at 1 μM worked out at 3.4 µL/min/mg.

`CCc1ccc2[nH]c(=O)c(C#N)c(N3CCC(C)(OC)CC3)c2n1` [Compound 167, 6-ethyl-4-(4-methoxy-4-methylpiperidin-1-yl)-2-oxo-1,2-dihydro-1,5-naphthyridine-3-carbonitrile] showed a half-life at 1 μM of 139 min and a microsomal CLint at 1 μM of 10 µL/min/mg.

`COC1(C)CCN(c2c(C#N)c(=O)[nH]c3cnc(C(C)OP(=O)([O-])[O-])cc23)CC1.[Na+].[Na+]` (stereo not shown) [Compound 204] registered a half-life at 1 μM of 495 min and an intrinsic clearance (microsomal CLint) at 1 μM of 2.8 µL/min/mg.

Consider `N#Cc1c(N2CCCCCC2)c2ccccc2[nH]c1=O` [Compound I-8, reference compound], for which the half-life at 1 μM was determined as 12 min and the intrinsic metabolic clearance (microsomal CLint) at 1 μM is 116 µL/min/mg.
